Experimental data taken from ChEMBL document CHEMBL1201862, “PubChem BioAssay data set” (2004).
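Results reflect a 48-hour exposure of cells in 96-well plates to compound at five concentrations. GI50 marks 50% less growth.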 Activity calls are given as the source filed them. Rule as the data show it: active = GI50 up to about 1.1 µM and inactive = higher.

Legend:
Test in all cases: growth of human tumour cells (NCI), 48 h
A549 = test system: A549
TK-10 = test system: TK-10
SK-MEL-2 = test system: SK-MEL-2
SW-620 = test system: SW-620
CCRF-CEM = test system: CCRF-CEM
MOLT-4 = test system: MOLT-4
HCT-15 = test system: HCT-15
SNB-75 = test system: SNB-75
SNB-19 = test system: SNB-19
SK-OV-3 = test system: SK-OV-3
KM-20L2 = test system: KM-20L2
UACC-257 = test system: UACC-257
DMS-114 = test system: DMS-114
HOP-18 = test system: HOP-18
SF-295 = test system: SF-295
786-0 = test system: 786-0
ACHN = test system: ACHN
HCT-116 = test system: HCT-116
HOP-92 = test system: HOP-92
T47D = test system: T47D

Structure (SMILES) | GI50 (A549) | GI50 (TK-10) | GI50 (SK-MEL-2) | GI50 (SW-620) | GI50 (CCRF-CEM) | GI50 (MOLT-4) | GI50 (HCT-15) [µM] | GI50 (SNB-75) | GI50 (SNB-19) | GI50 (SK-OV-3) | GI50 (KM-20L2) | GI50 (UACC-257) | GI50 (DMS-114) | GI50 (HOP-18) | GI50 (SF-295) | GI50 (786-0) | GI50 (ACHN) | GI50 (HCT-116) | GI50 (HOP-92) | GI50 (T47D)
O=C(CCn1[nH]c(=O)c(Cl)c(Cl)c1=O)NNC(=O)C[n+]1ccccc1 | > 100 µM (inactive) | > 100 µM (inactive) | > 100 µM (inactive) | > 100 µM (inactive) | > 100 µM (inactive) | > 100 µM (inactive) | > 100 | 52.4 µM (inactive) | > 100 µM (inactive) | > 100 µM (inactive) | > 100 µM (inactive) | > 10 µM (inactive) | > 100 µM (inactive) | > 100 µM (inactive) | > 100 µM (inactive) | > 100 µM (inactive) | > 100 µM (inactive) | – | – | –
CC(C)(C)c1ccc2c(c1)S(=O)(=O)Nc1ccc(Cl)cc1NS(=O)(=O)c1cc(C(C)(C)C)ccc1OCCOCCOCCO2 | 25.1 µM (inactive) | 37.5 µM (inactive) | 45.6 µM (inactive) | 98.9 µM (inactive) | > 100 µM (inactive) | > 100 µM (inactive) | > 100 | 24 µM (inactive) | 62.2 µM (inactive) | 33 µM (inactive) | – | 55.7 µM (inactive) | 36.3 µM (inactive) | > 100 µM (inactive) | 21.6 µM (inactive) | 87.3 µM (inactive) | 42.1 µM (inactive) | 35.9 µM (inactive) | 18.5 µM (inactive) | –
Cc1nnc(N/N=C(/C(=O)C(C#N)c2ccccc2)C(C#N)c2ccccc2)n1N (centres undefined) | 20.2 µM (inactive) | > 60.3 µM (inactive) | 5.25 µM (inactive) | 1.56 µM (inactive) | 2.12 µM (inactive) | 0.845 µM (active) | 16.1 | 16.4 µM (inactive) | 56 µM (inactive) | > 61.4 µM (inactive) | 49.3 µM (inactive) | 5.26 µM (inactive) | 3.01 µM (inactive) | 15.2 µM (inactive) | 3.75 µM (inactive) | 11.8 µM (inactive) | 22.3 µM (inactive) | 2.46 µM (inactive) | > 100 µM (inactive) | –
O=[N+]([O-])c1cc([N+](=O)[O-])c(C(Cl)C(Cl)c2ccccc2)cc1C(Cl)C(Cl)c1ccccc1 (centres undefined) | 2.05 µM (inactive) | 2.34 µM (inactive) | 2 µM (inactive) | 1.61 µM (inactive) | 2.21 µM (inactive) | 2.3 µM (inactive) | 1.48 | 2.47 µM (inactive) | 2.32 µM (inactive) | 6.34 µM (inactive) | 2.06 µM (inactive) | 1.84 µM (inactive) | 1.7 µM (inactive) | 1.46 µM (inactive) | 2.15 µM (inactive) | 1.69 µM (inactive) | 1.77 µM (inactive) | 1.19 µM (inactive) | 1.6 µM (inactive) | –
Cn1nc(-c2ccccc2)c(C(=O)/C=C/c2ccc(F)cc2)c(N2CCCCC2)c1=O | 5.13 µM (inactive) | 17.8 µM (inactive) | – | 5.06 µM (inactive) | 2.61 µM (inactive) | 2.63 µM (inactive) | 5.06 | – | 13.2 µM (inactive) | 15 µM (inactive) | 5.18 µM (inactive) | – | 3.86 µM (inactive) | 5.66 µM (inactive) | – | 4.62 µM (inactive) | 12.7 µM (inactive) | 3.31 µM (inactive) | 3.85 µM (inactive) | –
CC1CC(C)C(C(O)CC2CC(=O)N(c3ccccc3)C(=O)C2)C(O)C1 (centres undefined) | > 100 µM (inactive) | > 100 µM (inactive) | – | > 100 µM (inactive) | > 100 µM (inactive) | > 100 µM (inactive) | – | > 100 µM (inactive) | > 100 µM (inactive) | > 100 µM (inactive) | > 100 µM (inactive) | > 100 µM (inactive) | > 100 µM (inactive) | > 100 µM (inactive) | > 100 µM (inactive) | > 100 µM (inactive) | > 100 µM (inactive) | > 100 µM (inactive) | > 100 µM (inactive) | –
CN(C)/C(F)=P\C(F)(F)F (centres undefined) | > 100 µM (inactive) | > 100 µM (inactive) | > 100 µM (inactive) | > 100 µM (inactive) | > 100 µM (inactive) | > 100 µM (inactive) | > 100 | > 100 µM (inactive) | > 100 µM (inactive) | > 100 µM (inactive) | > 100 µM (inactive) | > 100 µM (inactive) | > 100 µM (inactive) | > 100 µM (inactive) | > 100 µM (inactive) | > 100 µM (inactive) | > 100 µM (inactive) | > 100 µM (inactive) | > 100 µM (inactive) | –
CCOC(=N)CC(=O)Nc1ccccc1CC | > 100 µM (inactive) | > 100 µM (inactive) | > 100 µM (inactive) | > 100 µM (inactive) | > 100 µM (inactive) | > 100 µM (inactive) | > 100 | > 100 µM (inactive) | > 100 µM (inactive) | > 100 µM (inactive) | > 100 µM (inactive) | > 100 µM (inactive) | – | > 100 µM (inactive) | > 100 µM (inactive) | > 100 µM (inactive) | > 100 µM (inactive) | > 100 µM (inactive) | – | –
O=C(O)CN(c1ccccc1)S(=O)(=O)c1ccc(NC(=O)c2ccccc2)cc1 | > 100 µM (inactive) | > 100 µM (inactive) | > 100 µM (inactive) | > 100 µM (inactive) | > 100 µM (inactive) | > 100 µM (inactive) | > 100 | > 100 µM (inactive) | > 100 µM (inactive) | > 100 µM (inactive) | > 100 µM (inactive) | > 100 µM (inactive) | – | > 100 µM (inactive) | – | > 100 µM (inactive) | > 100 µM (inactive) | – | > 100 µM (inactive) | –
CN(C)CCn1cnc2ncccc2c1=O | > 100 µM (inactive) | > 100 µM (inactive) | > 100 µM (inactive) | > 100 µM (inactive) | > 100 µM (inactive) | > 100 µM (inactive) | – | > 100 µM (inactive) | > 100 µM (inactive) | > 100 µM (inactive) | > 100 µM (inactive) | – | 53.1 µM (inactive) | – | > 100 µM (inactive) | > 100 µM (inactive) | > 100 µM (inactive) | > 100 µM (inactive) | > 100 µM (inactive) | –
COC(=O)c1c(-c2cc(OC)c(OC)c(OC)c2)oc2ccccc2c1=O | 83.8 µM (inactive) | 42.6 µM (inactive) | > 100 µM (inactive) | > 100 µM (inactive) | 36.7 µM (inactive) | 70.1 µM (inactive) | 15.4 | 58.7 µM (inactive) | > 100 µM (inactive) | > 100 µM (inactive) | > 100 µM (inactive) | > 100 µM (inactive) | – | > 100 µM (inactive) | > 100 µM (inactive) | > 100 µM (inactive) | > 100 µM (inactive) | 48.3 µM (inactive) | 96.6 µM (inactive) | –
Cc1ccc(NC(=O)CCC(=O)C(C#N)c2ccc(Cl)cc2)cc1C (centres undefined) | > 100 µM (inactive) | > 100 µM (inactive) | > 100 µM (inactive) | > 100 µM (inactive) | > 100 µM (inactive) | > 100 µM (inactive) | > 100 | > 100 µM (inactive) | > 100 µM (inactive) | – | > 100 µM (inactive) | > 100 µM (inactive) | > 100 µM (inactive) | > 100 µM (inactive) | > 100 µM (inactive) | > 100 µM (inactive) | > 100 µM (inactive) | > 100 µM (inactive) | > 100 µM (inactive) | –
CC1=C(C(=O)Nc2ccc([N+](=O)[O-])cc2)C(c2ccc3c(c2)OCO3)C(C(=O)Nc2ccc([N+](=O)[O-])cc2)=C(C)N1 | 24.2 µM (inactive) | – | 6.68 µM (inactive) | 51.9 µM (inactive) | – | 0.321 µM (active) | 8.09 | 6.18 µM (inactive) | > 100 µM (inactive) | > 100 µM (inactive) | 28 µM (inactive) | 5.6 µM (inactive) | 8.55 µM (inactive) | 23.3 µM (inactive) | 8.34 µM (inactive) | 14.1 µM (inactive) | 10.1 µM (inactive) | 10.1 µM (inactive) | 4.08 µM (inactive) | –
CC(C)(C)C#C[P+](c1ccccc1)(c1ccccc1)c1ccccc1 | 0.253 µM (active) | 1.43 µM (inactive) | 0.409 µM (active) | 0.152 µM (active) | 0.108 µM (active) | 0.197 µM (active) | 0.655 | 0.0348 µM (active) | 0.274 µM (active) | 0.655 µM (active) | 0.345 µM (active) | 0.366 µM (active) | – | 0.855 µM (active) | 0.292 µM (active) | 0.337 µM (active) | 1.39 µM (inactive) | 0.177 µM (active) | 0.194 µM (active) | –
CC(Oc1ccc2cc(C(=O)c3ccccc3)c(=O)oc2c1)C(=O)O (centres undefined) | > 100 µM (inactive) | > 100 µM (inactive) | – | > 100 µM (inactive) | > 100 µM (inactive) | > 100 µM (inactive) | – | > 100 µM (inactive) | > 100 µM (inactive) | > 100 µM (inactive) | > 100 µM (inactive) | > 100 µM (inactive) | > 100 µM (inactive) | > 100 µM (inactive) | > 100 µM (inactive) | > 100 µM (inactive) | > 100 µM (inactive) | > 100 µM (inactive) | > 100 µM (inactive) | –
COc1cc(C[C@H]2c3cc(OC)c(OC)cc3CCN2C)c(Oc2cc3c(cc2OC)-c2c(OC)c(OC)cc4c2[C@H](C3)N(C)CC4)cc1OC [THALICARPINE] | 11.9 µM (inactive) | 3.61 µM (inactive) | 10 µM (inactive) | 7.53 µM (inactive) | 8.99 µM (inactive) | 6.25 µM (inactive) | 5.04 | 7.03 µM (inactive) | 16.7 µM (inactive) | – | 4.53 µM (inactive) | 5.13 µM (inactive) | 9.1 µM (inactive) | – | 10.1 µM (inactive) | 3.52 µM (inactive) | 12.9 µM (inactive) | 4.83 µM (inactive) | 1.78 µM (inactive) | 10.1 µM (inactive)
